Laboratory results reported in patent US20240197711A1, “Combination Therapy for Cancer Treatment” (THE REGENTS OF THE UNIVERSITY OF MICHIGAN, priority 2021, published 2024).
“Also recorded” adds a separate entry of the source.

Tests used:
xCT = experiment: Loss of EGFR-chaperoned transporter xCT from cells; format: cell-based; details: along with EGFR
Description: (§1) It was reasoned that the activity seen in these susceptible tumor lines was largely due to EGFR KIFs. Tumors cells are always metabolically stressed, and in actual tumors poor circulation makes the stress even more severe on the tumor interior, which is usually hypoxic once the tumor has growth to more than 100 mm^3. […] As tumor cells try to run in […] glycolysis, they have a much larger glucose requirement than normal cells, and any hindrance of glucose import would be expected to stress cells, pushing them away from aerobic glycolysis, and towards oxidative phosphorylation to produce ATP, which in turn would almost certainly increase production of reactive oxygen intermediates (ROI) in these already abnormally metabolizing cells. The most common ways of disposing of ROI are via conjugation with glutathione, or reaction with various reducing enzymes, most of which rely on cysteine thiols for their RedOx ability. Both of these mechanisms require stressed cells to be able to import large amounts of cysteine, much of which is produced by the liver and put into circulation, as the high demand totally overwhelms endogenous cysteine biosynthesis (which requires methionine as its source of sulfur). […]

[1] = On target toxicity compared with EGFR inhibitors
[2] = tested on: osimertinib-resistant PC9 non-small cell lung cancer xenografts; experiment: PC9 xenograft, Compound A with or without radiation, tumor volume; format: in vivo, mice
Procedure: (§2) Mice bearing locally advanced xenograft (PC9, RKO, or UMSCC74B) were treated with vehicle (control); daily oral gavage of Compound A (also referred to as DPI-503), radiation plus vehicle, or a combination of daily oral gavage of Compound A and radiation. Tumor volumes were measured using calipers at least three times a week.

[3] = tested on: tumors driven by mt-KRAS or mt-BRAF; experiment: NC160 Tumor Cell panel; format: cell-based; details: several tumors driven by mt-KRAS or mt-BRAF
[4] = tested on: UMSCC74B KRAS G12D head and neck squamous cell carcinoma tumor; experiment: UMSCC74B xenograft, Compound A with or without radiation, tumor volume; format: in vivo, mice; details: mt-KRAS UMSCC74B; 30 mg/kg biw for 2 weeks oral; 2 GY/day five days a week for 3 weeks
[5] = tested on: cells driven by mt-KRAS, mt-BRAF, and mt-EGFR; experiment: Oxidative stress in cells, hydrogen peroxide levels as marker; format: cell-based; details: six hours post treatment
Description: Signs of oxidative stress in cells were investigated after addition of increasing amounts of Compound A with hydrogen peroxide levels being chosen as a marker of increased oxidative stress. […] Consideration was given to ways of exploiting oxidative stress in these tumor types. Oxidative stress both contributes towards causing DNA damage, and makes DNA damage more difficult to repair. So a combination of an ODDER (e.g., Compound A) with a DNA damaging agent, such as radiation, may result in useful therapeutic regimen. Compound A and radiation was examined in vivo xenograft experiments in mt-EGFR, mt-KRAS, and mt-BRAF driven tumors. […] Thus, it is believed that ODDER compounds, such as Compound A, can be used in combination with radiation to treat localized tumors which express either mutant KRAS or mutant BRAF. […] Other ODDER compounds are also expected to have similar lower on target toxicity.

[6] = tested on: RKO BRAF V600E colorectal cancer tumors; experiment: RKO xenograft, Compound A with or without radiation, tumor volume; format: in vivo, mice; details: mt-BRAF RKO, 100 mg/kg daily oral, 2 GY/day five days a week for 3 weeks
Procedure: as §2

EGFR = target: T1, EGFR (Homo sapiens, UniProt P00533); experiment: Loss/depletion of EGFR from treated tumor cells; format: cell-based
T1 construct: they all coexpress wild-type (wt)—EGFR along with the KRAS or BRAF oncogene; endogenous in cells
T1 sequence (P00533 25-1210): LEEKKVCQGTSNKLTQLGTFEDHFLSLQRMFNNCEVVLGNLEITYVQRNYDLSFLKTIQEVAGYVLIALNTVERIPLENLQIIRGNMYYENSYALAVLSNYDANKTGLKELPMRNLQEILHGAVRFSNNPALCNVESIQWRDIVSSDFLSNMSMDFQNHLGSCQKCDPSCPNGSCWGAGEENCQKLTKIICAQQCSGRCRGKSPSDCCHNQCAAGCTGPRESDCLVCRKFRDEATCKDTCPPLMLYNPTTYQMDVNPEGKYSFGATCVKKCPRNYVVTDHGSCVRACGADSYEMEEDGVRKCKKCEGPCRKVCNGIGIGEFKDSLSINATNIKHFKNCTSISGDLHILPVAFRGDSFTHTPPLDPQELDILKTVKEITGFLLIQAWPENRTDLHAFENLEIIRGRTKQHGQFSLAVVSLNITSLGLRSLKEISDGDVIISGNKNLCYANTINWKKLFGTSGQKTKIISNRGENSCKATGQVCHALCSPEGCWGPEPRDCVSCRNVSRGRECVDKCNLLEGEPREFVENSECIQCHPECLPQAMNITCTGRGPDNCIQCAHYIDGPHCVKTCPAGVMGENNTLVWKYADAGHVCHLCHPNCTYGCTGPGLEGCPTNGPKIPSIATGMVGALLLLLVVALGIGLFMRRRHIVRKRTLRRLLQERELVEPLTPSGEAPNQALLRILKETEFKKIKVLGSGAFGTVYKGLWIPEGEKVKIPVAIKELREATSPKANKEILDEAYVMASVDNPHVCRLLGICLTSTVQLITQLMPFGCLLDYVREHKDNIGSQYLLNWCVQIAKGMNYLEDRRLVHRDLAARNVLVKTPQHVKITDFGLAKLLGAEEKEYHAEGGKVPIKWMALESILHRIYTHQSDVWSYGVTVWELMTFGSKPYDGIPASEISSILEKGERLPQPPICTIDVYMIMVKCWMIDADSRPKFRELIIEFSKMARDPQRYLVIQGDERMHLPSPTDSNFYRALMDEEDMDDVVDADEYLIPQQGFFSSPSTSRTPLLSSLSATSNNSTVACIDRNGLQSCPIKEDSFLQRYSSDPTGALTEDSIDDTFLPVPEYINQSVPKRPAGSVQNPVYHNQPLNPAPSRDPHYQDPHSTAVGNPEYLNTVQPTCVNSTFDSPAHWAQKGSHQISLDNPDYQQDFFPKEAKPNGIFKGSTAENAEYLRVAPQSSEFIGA
Description: However, binding of ODDERs to EGFR prevents activated EGFR from forming the stable molecular complexes required to protect them from being rapidly internalized and degraded by the normal cellular protein degradation mechanisms, which is exactly what these molecules were designed to do. […] The kinase catalytic domain then unbinds both the product, a tyrosyl phosphate monoester, and the byproduct ADP, and can then bind further ATP and substrate as the catalytic cycle continues. There appear to be two major uses for tyrosine phosphorylation in a substrate molecule. The first is that conformational changes in the substrate protein are often driven by the conversion of a neutral, somewhat hydrophobic, tyrosine side chain into a highly hydrophilic phosphotyrosine, with two negative charges at physiological pH. The second is that there are binding sites on many proteins for phosphotyrosine residues, which induce new protein-protein interactions for the substrate protein, frequently changing its cellular localization and/or allowing it to assemble into new multiprotein complexes, both of which can lead the substrate protein to show very different activities after phosphorylation. […] This recruits the intermediate proteins which lead to the activation of the before mentioned signaling cascades. […]

SGLT1 = experiment: Loss of EGFR-chaperoned transporter SGLT1 from cells; format: cell-based; details: along with EGFR
Description: as §1

loss of EGFR from the cell surface (EGFR): loss of EGFR from the cell surface
Structure (SMILES): CN1CCC2(CC1)N=C(SCC(=O)Nc1cnc3ccccc3c1)C(c1ccc(Br)cc1)=N2 [Compound A]
ablation of xCT transporter (xCT): ablated along with EGFR
on target toxicity [1]: much less on target toxicity than EGFR inhibitors
active tumor by gross pathology or histochemistry ([2]; Day 155, end of experiment, treatment group not named, presumably combination): active tumor could not be detected
anti-tumor effect of Compound A combined with radiation (tumor volume) ([2]; mt-EGFR PC9, 75 mg/kg five times a week for 3 weeks oral, 2 Gy/day five times a week for 3 weeks): unexpectedly exhibited efficacy; also recorded: strongly increased
anti-proliferative activity [3]: considerable anti-proliferative activity
anti-tumor effect of Compound A combined with radiation (tumor volume) [4]: unexpectedly exhibited efficacy; also recorded: strongly increased
H2O2 levels, dose dependence ([5]; increasing amounts of compound): dose-dependent increase
increase in cellular H2O2 levels ([5]; top dose tested): 2-4 fold
anti-tumor effect of Compound A combined with radiation (tumor volume) [6]: unexpectedly exhibited efficacy; also recorded: strongly increased
ablation of SGLT1 transporter (SGLT1): ablated along with EGFR
